Key:
Assay in all cases: Radiolabel SAMS kinase assay, immobilised GST-AMPK
Format in all cases: biochemical
Settings in all cases: 1 µM compound
human GST-AMPK α1β1γ3 = target: T1, human GST-AMPK α1β1γ3 (Homo sapiens, UniProt Q13131+Q9Y478)
T1 construct: triply transfected with full-length AMPK α1 or α2 (NH2-terminal GST fusion, pDEST27 vector); full-length AMPK α1 or α2 (NH2-terminal GST fusion, pDEST27 vector), β1 or β2 (COOH-terminal FLAG fusion, pcDNA3.1 vector); FLAG (C); made in house; host or cells: HEK293T/17 cells, transient triple transfection
T1 sequence (Q13131 whole entry, the tested form may be a part): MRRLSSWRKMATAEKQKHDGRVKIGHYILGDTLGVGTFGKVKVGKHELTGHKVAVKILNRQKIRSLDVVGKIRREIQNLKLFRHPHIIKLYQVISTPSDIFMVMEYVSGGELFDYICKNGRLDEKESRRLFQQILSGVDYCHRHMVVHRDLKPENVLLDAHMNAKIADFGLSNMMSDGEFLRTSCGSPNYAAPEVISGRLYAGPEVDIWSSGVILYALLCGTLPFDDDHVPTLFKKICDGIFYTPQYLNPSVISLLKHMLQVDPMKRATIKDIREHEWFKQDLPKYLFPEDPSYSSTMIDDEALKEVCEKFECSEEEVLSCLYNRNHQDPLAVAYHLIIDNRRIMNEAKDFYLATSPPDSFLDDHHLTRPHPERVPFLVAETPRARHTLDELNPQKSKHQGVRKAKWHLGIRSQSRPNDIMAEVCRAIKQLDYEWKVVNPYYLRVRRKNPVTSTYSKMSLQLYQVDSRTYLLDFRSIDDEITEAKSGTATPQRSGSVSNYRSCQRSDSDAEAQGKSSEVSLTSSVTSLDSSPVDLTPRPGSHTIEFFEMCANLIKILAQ
T1 sequence (Q9Y478 whole entry, the tested form may be a part): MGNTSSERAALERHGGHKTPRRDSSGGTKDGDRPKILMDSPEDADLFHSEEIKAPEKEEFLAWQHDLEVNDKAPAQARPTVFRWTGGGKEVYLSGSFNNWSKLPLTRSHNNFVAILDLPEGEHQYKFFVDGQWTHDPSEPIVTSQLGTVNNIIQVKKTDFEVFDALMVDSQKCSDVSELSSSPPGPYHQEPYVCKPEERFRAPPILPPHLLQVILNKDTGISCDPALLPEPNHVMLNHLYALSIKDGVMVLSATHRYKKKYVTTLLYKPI
T1 sequence (Q9UGI9 whole entry partner, the tested form may be a part): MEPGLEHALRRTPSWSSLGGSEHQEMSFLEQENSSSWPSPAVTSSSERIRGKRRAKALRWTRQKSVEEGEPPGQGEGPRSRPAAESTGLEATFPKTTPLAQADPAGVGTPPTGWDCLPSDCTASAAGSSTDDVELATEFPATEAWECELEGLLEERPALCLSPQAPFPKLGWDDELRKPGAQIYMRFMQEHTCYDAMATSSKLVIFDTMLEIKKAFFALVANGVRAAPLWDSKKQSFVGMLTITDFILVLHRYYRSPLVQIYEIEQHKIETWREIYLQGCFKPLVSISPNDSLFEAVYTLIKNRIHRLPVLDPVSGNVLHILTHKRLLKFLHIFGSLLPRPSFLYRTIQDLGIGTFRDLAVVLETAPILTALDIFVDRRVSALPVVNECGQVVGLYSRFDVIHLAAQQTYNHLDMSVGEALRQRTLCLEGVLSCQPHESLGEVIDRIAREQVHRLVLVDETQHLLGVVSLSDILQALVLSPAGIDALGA
Excerpt: (§1) We generated a series of compounds to investigate whether modification of the SC4 2-hydroxybiphenyl LHS fragment affects isoform selectivity, some of which (MSG008-MSG011) are presented in Table 1. We also synthesised compound MSG012 (example I-3-54 [32]), which was reported to activate α2β2γ1 with ∼100-fold greater potency compared with α1β1γ1. MSG012 differs from SC4 by substitution of the 2-hydroxyphenyl LHS fragment with 3-cyclohexen-4-yl-1-carboxylic acid, and 2-methylbenzoic acid RHS fragment with 1-hydroxy-N,N-dimethylcyclohexan-4-yl-1-carboxamide. Our initial screen involved measuring the activity of recombinant human GST-AMPK complexes expressed in HEK293T/17 cells and immobilised on glutathione-Sepharose (Supplementary Figure S1). Enzyme activity was measured by radiolabelling the synthetic SAMS peptide substrate in the absence or presence of 1 µM compound. Consistent with our previous characterisation, SC4 activated α1β1γ1, α2β1γ1 and α2β2γ1 >2.3-fold, and weakly activated α1β2γ1 1.3-fold (Figure 1A). […] The γ isoform had little influence on AMPK activation by MSG011 as most γ2 and γ3 complexes were activated >2.2-fold at 1 µM, with α1β2γ2 being the only exception (1.6-fold activation). […] Accordingly, MSG010, MSG011 and MSG012 can be classified as pan AMPK activators.
(§2) Adherent HEK293T/17 cells at ∼50% confluency were triply transfected with full-length AMPK α1 or α2 (NH2-terminal GST fusion, pDEST27 vector), β1 or β2 (COOH-terminal FLAG fusion, pcDNA3.1 vector), and γ1, γ2 or γ3 (NH2-terminal HA fusion, pMT2 vector) in the presence of FuGENE HD transfection reagent (Promega) as per the manufacturers protocol. Cells were harvested 48 hours post-transfection by first gently washing in ice cold phosphate buffered saline (PBS; Sigma–Aldrich), then scraping in ice cold lysis buffer (50 mM TRIS pH 7.5, 150 mM NaCl, 10% (v/v) glycerol, 50 mM NaF, 5 mM sodium pyrophosphate, 1% (v/v) Triton X-100, cOmplete protease inhibitor cocktail). Lysates were clarified by centrifugation (16 000g, 3 min, 4°C), flash frozen in liquid N2 and stored at −80°C until analysis. For radioactive kinase assays, AMPK was immobilised on glutathione Sepharose 4B resin (GE Healthcare) by incubation with lysates for 1.5 h at 4°C. Following centrifugation (1000g, 3 min, 4°C), the resin was washed twice in purification buffer (50 mM HEPES pH 7.4, 150 mM NaCl, 10% (v/v) glycerol, 0.02% (v/v) Tween-20), once in 50 mM HEPES pH 7.4 with 0.02% (v/v) Tween-20, then resuspended to a 50% slurry with 50 mM HEPES pH 7.4 and 10 µl added to the activity assays. For in solution kinase assays, α1β1γ1 AMPK was eluted from glutathione-Sepharose by incubating with purification buffer supplemented with 40 mM reduced glutathione (Sigma–Aldrich).
(§3) AMPK activity was determined by phosphorylation of the SAMS peptide (Purar Chemicals, sequence: NH2-HMRSAMSGLHLVKRR-COOH) in a 25 µl reaction volume containing 100 µM SAMS peptide, 5 mM MgCl2, 200 µM ATP, [γ-^32P]-ATP (PerkinElmer) and assay buffer (50 mM HEPES pH 7.4, 1 mM DTT and 0.02% (v/v) Tween-20) and purified AMPK. Phosphotransferase activity was conducted at 30°C for 10 min and reactions were quenched by spotting 15 µl onto phosphocellulose ion-exchange chromatography paper (made in-house), followed by repeated washes in 1% H3PO4 (Merck Millipore). Ultima Gold liquid scintillation fluid (5 ml; PerkinElmer) was added to vials containing dried phosphocellulose papers, and the level of ^32P-transfer to the SAMS peptide was determined using a Tri-Carb 2900TR liquid scintillation counter (PerkinElmer).

human GST-AMPK α2β1γ2 = target: T2, human GST-AMPK α2β1γ2 (Homo sapiens, UniProt P54646+Q9Y478)
T2 construct: triply transfected with full-length AMPK α1 or α2 (NH2-terminal GST fusion, pDEST27 vector); full-length AMPK α1 or α2 (NH2-terminal GST fusion, pDEST27 vector), β1 or β2 (COOH-terminal FLAG fusion, pcDNA3.1 vector); FLAG (C); made in house; host or cells: HEK293T/17 cells, transient triple transfection
T2 sequence (P54646 whole entry, the tested form may be a part): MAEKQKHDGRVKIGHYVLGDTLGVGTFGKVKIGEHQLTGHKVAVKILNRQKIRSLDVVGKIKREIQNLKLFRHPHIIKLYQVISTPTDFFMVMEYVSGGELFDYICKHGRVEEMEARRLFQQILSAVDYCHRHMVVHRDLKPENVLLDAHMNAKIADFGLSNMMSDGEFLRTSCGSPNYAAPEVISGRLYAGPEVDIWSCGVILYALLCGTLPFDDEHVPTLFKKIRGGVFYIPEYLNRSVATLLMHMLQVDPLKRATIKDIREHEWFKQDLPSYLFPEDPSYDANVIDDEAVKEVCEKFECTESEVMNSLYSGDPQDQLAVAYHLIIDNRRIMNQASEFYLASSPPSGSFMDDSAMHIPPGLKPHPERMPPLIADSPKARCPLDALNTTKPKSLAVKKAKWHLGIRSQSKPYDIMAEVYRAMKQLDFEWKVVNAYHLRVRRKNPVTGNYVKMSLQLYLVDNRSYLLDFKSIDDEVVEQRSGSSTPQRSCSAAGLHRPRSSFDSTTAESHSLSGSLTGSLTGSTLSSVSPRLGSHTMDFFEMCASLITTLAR
T2 sequence (Q9Y478 whole entry, the tested form may be a part): as the sequence (Q9Y478 whole entry, the tested form may be a part) above
T2 sequence (Q9UGJ0 whole entry partner, the tested form may be a part): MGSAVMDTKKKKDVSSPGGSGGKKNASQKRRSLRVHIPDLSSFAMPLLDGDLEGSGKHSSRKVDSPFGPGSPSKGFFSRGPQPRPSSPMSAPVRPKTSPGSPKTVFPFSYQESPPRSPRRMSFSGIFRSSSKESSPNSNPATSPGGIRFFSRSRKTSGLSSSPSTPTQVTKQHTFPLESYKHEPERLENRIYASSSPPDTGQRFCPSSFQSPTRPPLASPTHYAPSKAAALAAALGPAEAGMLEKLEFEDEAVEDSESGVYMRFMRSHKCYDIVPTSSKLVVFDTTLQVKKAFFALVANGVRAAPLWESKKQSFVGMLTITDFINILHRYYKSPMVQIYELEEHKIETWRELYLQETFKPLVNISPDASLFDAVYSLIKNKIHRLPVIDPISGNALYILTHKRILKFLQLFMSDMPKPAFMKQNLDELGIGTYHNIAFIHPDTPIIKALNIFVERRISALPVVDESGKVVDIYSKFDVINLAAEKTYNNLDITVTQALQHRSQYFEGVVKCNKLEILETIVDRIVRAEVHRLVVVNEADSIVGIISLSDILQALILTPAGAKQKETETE
Excerpt: as §1, §2, §3

human GST-AMPK α2β1γ3 = target: T3, human GST-AMPK α2β1γ3 (Homo sapiens, UniProt P54646+Q9Y478)
T3 construct: triply transfected with full-length AMPK α1 or α2 (NH2-terminal GST fusion, pDEST27 vector); full-length AMPK α1 or α2 (NH2-terminal GST fusion, pDEST27 vector), β1 or β2 (COOH-terminal FLAG fusion, pcDNA3.1 vector); FLAG (C); made in house; host or cells: HEK293T/17 cells, transient triple transfection
T3 sequence (P54646 whole entry, the tested form may be a part): as the sequence (P54646 whole entry, the tested form may be a part) above
T3 sequence (Q9Y478 whole entry, the tested form may be a part): as the sequence (Q9Y478 whole entry, the tested form may be a part) above
T3 sequence (Q9UGI9 whole entry partner, the tested form may be a part): as the sequence (Q9UGI9 whole entry partner, the tested form may be a part) above
Excerpt: as §1, §2, §3

human GST-AMPK α1β2γ2 = target: T4, human GST-AMPK α1β2γ2 (Homo sapiens, UniProt O43741+Q13131)
T4 construct: triply transfected with full-length AMPK α1 or α2 (NH2-terminal GST fusion, pDEST27 vector); full-length AMPK α1 or α2 (NH2-terminal GST fusion, pDEST27 vector), β1 or β2 (COOH-terminal FLAG fusion, pcDNA3.1 vector); FLAG (C); made in house; host or cells: HEK293T/17 cells, transient triple transfection
T4 sequence (Q13131 whole entry, the tested form may be a part): as the sequence (Q13131 whole entry, the tested form may be a part) above
T4 sequence (O43741 whole entry, the tested form may be a part): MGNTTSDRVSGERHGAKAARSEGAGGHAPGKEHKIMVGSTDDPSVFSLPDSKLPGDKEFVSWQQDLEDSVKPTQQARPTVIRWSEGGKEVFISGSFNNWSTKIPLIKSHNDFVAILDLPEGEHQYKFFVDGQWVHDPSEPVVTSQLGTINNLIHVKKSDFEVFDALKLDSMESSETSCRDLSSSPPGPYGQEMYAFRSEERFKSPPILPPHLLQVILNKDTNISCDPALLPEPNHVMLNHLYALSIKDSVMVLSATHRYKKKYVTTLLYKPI
T4 sequence (Q9UGJ0 whole entry partner, the tested form may be a part): as the sequence (Q9UGJ0 whole entry partner, the tested form may be a part) above
Excerpt: as §1, §2, §3

human GST-AMPK α1β2γ3 = target: T5, human GST-AMPK α1β2γ3 (Homo sapiens, UniProt O43741+Q13131)
T5 construct: triply transfected with full-length AMPK α1 or α2 (NH2-terminal GST fusion, pDEST27 vector); full-length AMPK α1 or α2 (NH2-terminal GST fusion, pDEST27 vector), β1 or β2 (COOH-terminal FLAG fusion, pcDNA3.1 vector); FLAG (C); made in house; host or cells: HEK293T/17 cells, transient triple transfection
T5 sequence (Q13131 whole entry, the tested form may be a part): as the sequence (Q13131 whole entry, the tested form may be a part) above
T5 sequence (O43741 whole entry, the tested form may be a part): as the sequence (O43741 whole entry, the tested form may be a part) above
T5 sequence (Q9UGI9 whole entry partner, the tested form may be a part): as the sequence (Q9UGI9 whole entry partner, the tested form may be a part) above
Excerpt: as §1, §2, §3

human GST-AMPK α1β1γ2 = target: T6, human GST-AMPK α1β1γ2 (Homo sapiens, UniProt Q13131+Q9Y478)
T6 construct: triply transfected with full-length AMPK α1 or α2 (NH2-terminal GST fusion, pDEST27 vector); full-length AMPK α1 or α2 (NH2-terminal GST fusion, pDEST27 vector), β1 or β2 (COOH-terminal FLAG fusion, pcDNA3.1 vector); FLAG (C); made in house; host or cells: HEK293T/17 cells, transient triple transfection
T6 sequence (Q13131 whole entry, the tested form may be a part): as the sequence (Q13131 whole entry, the tested form may be a part) above
T6 sequence (Q9Y478 whole entry, the tested form may be a part): as the sequence (Q9Y478 whole entry, the tested form may be a part) above
T6 sequence (Q9UGJ0 whole entry partner, the tested form may be a part): as the sequence (Q9UGJ0 whole entry partner, the tested form may be a part) above
Excerpt: as §1, §2, §3

human GST-AMPK α2β2γ3 = target: T7, human GST-AMPK α2β2γ3 (Homo sapiens, UniProt O43741+P54646)
T7 construct: triply transfected with full-length AMPK α1 or α2 (NH2-terminal GST fusion, pDEST27 vector); full-length AMPK α1 or α2 (NH2-terminal GST fusion, pDEST27 vector), β1 or β2 (COOH-terminal FLAG fusion, pcDNA3.1 vector); FLAG (C); made in house; host or cells: HEK293T/17 cells, transient triple transfection
T7 sequence (P54646 whole entry, the tested form may be a part): as the sequence (P54646 whole entry, the tested form may be a part) above
T7 sequence (O43741 whole entry, the tested form may be a part): as the sequence (O43741 whole entry, the tested form may be a part) above
T7 sequence (Q9UGI9 whole entry partner, the tested form may be a part): as the sequence (Q9UGI9 whole entry partner, the tested form may be a part) above
Excerpt: as §1, §2, §3

human GST-AMPK α2β2γ2 = target: T8, human GST-AMPK α2β2γ2 (Homo sapiens, UniProt O43741+P54646)
T8 construct: triply transfected with full-length AMPK α1 or α2 (NH2-terminal GST fusion, pDEST27 vector); full-length AMPK α1 or α2 (NH2-terminal GST fusion, pDEST27 vector), β1 or β2 (COOH-terminal FLAG fusion, pcDNA3.1 vector); FLAG (C); made in house; host or cells: HEK293T/17 cells, transient triple transfection
T8 sequence (P54646 whole entry, the tested form may be a part): as the sequence (P54646 whole entry, the tested form may be a part) above
T8 sequence (O43741 whole entry, the tested form may be a part): as the sequence (O43741 whole entry, the tested form may be a part) above
T8 sequence (Q9UGJ0 whole entry partner, the tested form may be a part): as the sequence (Q9UGJ0 whole entry partner, the tested form may be a part) above
Excerpt: as §1, §2, §3

fold AMPK activation relative to vehicle (human GST-AMPK α1β1γ3): > 2.2 fold
fold AMPK activation relative to vehicle (human GST-AMPK α2β1γ2): > 2.2 fold
fold AMPK activation relative to vehicle (human GST-AMPK α2β1γ3): > 2.2 fold
fold AMPK activation relative to vehicle (human GST-AMPK α1β2γ2): 1.6 fold
fold AMPK activation relative to vehicle (human GST-AMPK α1β2γ3): > 2.2 fold
fold AMPK activation relative to vehicle (human GST-AMPK α1β1γ2): > 2.2 fold
fold AMPK activation relative to vehicle (human GST-AMPK α2β2γ3): > 2.2 fold
fold AMPK activation relative to vehicle (human GST-AMPK α2β2γ2): > 2.2 fold
SMILES: CC(=O)NC1CC=C(c2ccc(-c3nc4nc(Oc5ccc(C)c(C(=O)O)c5)[nH]c4cc3Cl)cc2)CC1 (centres unmarked) [MSG011, 5-((5-(4′-Acetamido-2′,3′,4′,5′-tetrahydro-[1,1′-biphenyl]-4-yl)-6-chloro-1H-imidazo[4,5-b]pyridin-2-yl)oxy)-2-methylbenzoic acid]

From article PMC9317966, “Structure-function analysis of the AMPK activator SC4 and identification of a potent pan AMPK activator” (Biochemical Journal, 2022)
